Reference: ChEMBL document CHEMBL1629703, “Novel hepatitis C virus reporter replicon cell lines enable efficient antiviral screening against genotype 1a” (Antimicrob Agents Chemother, 2010)

Key:
[1] = test system: Hepatitis C virus; experiment: Antiviral activity against Hepatitis C virus genotype 1a in luciferase encoding genotype 1a replicons after 3 days by luciferase reporter assay; format: functional, organism-based, Hepacivirus hominis; details: subtype 1a, 72 h
[2] = test system: Hepatitis C virus; experiment: Antiviral activity against Hepatitis C virus genotype 1b in luciferase encoding genotype 1b replicons after 3 days by luciferase reporter assay; format: functional, organism-based, Hepacivirus hominis; details: 72 h

EC50 [2] [nM]	SMILES	EC50 [1] [nM]
618	C[C@@]1(O)[C@H](O)[C@@H](CO)O[C@H]1n1cnc2c(N)ncnc21	733
1690	CCC[C@H](NC(=O)[C@@H]1[C@H]2CCC[C@H]2CN1C(=O)[C@@H](NC(=O)[C@@H](NC(=O)c1cnccn1)C1CCCCC1)C(C)(C)C)C(=O)C(=O)NC1CC1 [TELAPREVIR]	1250
	COc1ccc2c(O[C@@H]3C[C@H]4C(=O)N[C@]5(C(=O)O)C[C@H]5/C=C\CCCCC[C@H](NC(=O)OC5CCCC5)C(=O)N4C3)cc(-c3csc(NC(C)C)n3)nc2c1 [CILUPREVIR]	17

SMILES	EC50 [2] [nM]	EC50 [1] [nM]
CNC(=O)c1c(-c2ccc(F)cc2)oc2cc(N(CCO)S(C)(=O)=O)c(C3CC3)cc12 [NESBUVIR]	22	45
